Experimental data from ChEMBL document CHEMBL4138259, “Discovery of JTZ-951: A HIF Prolyl Hydroxylase Inhibitor for the Treatment of Renal Anemia” (ACS Med Chem Lett, 2017).

Columns and labels:
Rattus norvegicus [1] = assay: Toxicity in CD(SD) rat assessed as induction of anorexia at 100 mg/kg, po administered as single dose; assay type: organism-based; details: in vivo
in vitro = details: human, Caco-2
Mus musculus = assay: Upregulation of plasma EPO level in Balb/c mouse at 10 mg/kg, po administered as single dose measured after 8 hrs by ELISA; assay type: functional
Rattus norvegicus [2] = assay: Upregulation of plasma EPO level in CD(SD) rat at 10 mg/kg, po administered as single dose measured after 8 hrs by RIA; assay type: functional

| SMILES | Activity (Rattus norvegicus [1]) | Papp A→B at 2 h, 25 µM (in vitro) | Activity (Mus musculus) | Activity (Rattus norvegicus [2]) |
| --- | --- | --- | --- | --- |
| O=C(O)CNC(=O)c1c(O)cc(-c2cccc(Cl)c2)n2ncnc12 | Toxic | 6.1 ×10⁻⁶ cm/s | >15000 pg/mL | 7900 pg/mL |
| Cl.O=C(O)CNC(=O)c1c(O)ccn2cnnc12 |  | < 0.4 ×10⁻⁶ cm/s |  |  |
| Cl.O=C(O)CNC(=O)c1c(O)cc(C2CCCCC2)n2ncnc12 |  | 21 ×10⁻⁶ cm/s | 540 pg/mL |  |
| Cl.O=C(O)CNC(=O)c1c(O)ccn2ncnc12 |  | 0.86 to 0.9 ×10⁻⁶ cm/s |  |  |
| CCCc1cc(O)c(C(=O)NCC(=O)O)c2ncnn12.Cl |  | 2.1 ×10⁻⁶ cm/s | <300 pg/mL |  |
| Cl.O=C(O)CNC(=O)c1c(O)ccc2ncnn12 |  | 0.4 ×10⁻⁶ cm/s |  |  |
| CCCCCc1cc(O)c(C(=O)NCC(=O)O)c2ncnn12.Cl | Toxic | 20 ×10⁻⁶ cm/s | 2300 pg/mL | 11000 pg/mL |
| CCc1c(O)c(C(=O)NCC(=O)O)c2ncnn2c1CC.Cl |  | 9.3 ×10⁻⁶ cm/s | 1100 pg/mL |  |
| Cc1nc2c(C(=O)NCC(=O)O)c(O)cc(CCc3ccccc3)n2n1.Cl |  | 8.9 ×10⁻⁶ cm/s | <260 pg/mL |  |
| Cl.O=C(O)CNC(=O)c1c(O)cc(C2CCCCC2)c2ncnn12 |  | 18 ×10⁻⁶ cm/s | <450 pg/mL |  |
